Measured values taken from US4791135A (priority 1987, dated 1988).

Assays:
[1] = tested on: P. falciparum Sierra Leone (D-6) clone; test: In vitro antimalarial susceptibility, 3H-hypoxanthine uptake, Sierra Leone (D-6) clone; type: cell-based, Plasmodium falciparum
Description: (§1) The former clone is a strain that is resistant to mefloquine and the latter, to chloroquine, pyrimethamine, sulfadoxine, and quinine.
(§2) In vitro assays were conducted using a modification of the semiautomated microdilution technique of Desjardins et al., Antimicrob. Agents Chemoether., 1979, Volume 16, page 710 and Milhous et al., Antimicrob. Agents Chemother., 1985, Volume 27, page 525. Two P. falciparum malaria parasite clones, designated as Indochina (W-2) and Sierra Leone (D-6), were utilized in susceptibility testing. They were derived by direct visualization and micromanipulation from patient isolates obtained by the Centers for Disease Control, Atlanta, GA in 1980 and 1982, respectively. The patients had acquired infections either in Vietnam or Sierra Leone. The Indochina clone is resistant to the antimalarials chloroquine, sulfadoxine, pyrimethamine, and quinine, whereas the Sierra Leone, is resistant to mefloquine but susceptible to chloroquine, quinine, sulfadoxine, and pyrimethamine. Test compounds were initially dissolved in DMSO and 70% ethanol and diluted in RPMI 1640 culture medium with 10% human plasma to 400 fold. Drugs were subsequently further diluted using the Cetus Pro/Pette (Perkin-Elmer Corp., Norwalk, CT) over a range of 1.56-100×10^-9 molar. Parasite inocula (at 0.5% parasitemia and a 1% hematocrit) were incubated for 24 hours and added to equimolar concentrations of each test compound prior to the addition of ^3 H-hypoxanthine. After a further incubation of 18 hours, particulate matter was harvested from each microtiter well using an automated cell harvester (Skatron, Inc., Sterling, VA). Uptake of ^3 H-hypoxanthine was measured using a scintillation spectrophotometer (Model LS3801, Beckman Instruments, Irvine, CA).

[2] = tested on: P. falciparum Indochina (W-2) clone; test: In vitro antimalarial susceptibility, 3H-hypoxanthine uptake, Indochina (W-2) clone; type: cell-based, Plasmodium falciparum; conditions: Plasmodium falciparum
Description: as §1, §2

physchem = type: physicochemical
Description: To compare the relative stability of the new agents vs. artesunic acid, stability studies of compound 8d and compound 1 were conducted in 2.5% K2 CO3 /D2 O solution at room temperature and were monitored by PMR. [drawing 8]
To a 5 mm NMR tube containing 10 mg of sample was added 0.5 mL of 2.5% K2 CO3 /D2 O solution. The initial spectrum of the solution was taken within 5 minutes, and again at intervals thereafter. The extent of hydrolysis was estimated by the following equation:
% Decomposition=(B/2A+B)×100
where A=integration of H-10 (5.80 ppm, d, J=10.8 Hz, 1H) and H-12 (5.71 ppm, s, 1H) of artesunate; B=integration of the singlet at 2.42 ppm for the potassium succinate formed. With time, the intensity of potassium succinate (2.42 ppm) signal increases, while that of H-10 and H-12 of artesunate decreases. The stability study of compound 1 in 5% NaHCO3 /D2 O was also carried out by the same procedure.

[3] = tested on: Plasmodium falciparum D-6 (Sierra Leone clone) and W-2 (Indochina clone); test: In vitro antimalarial activity against both clones, summarised in words; type: cell-based; conditions: in words; relative to artemisinin (3) or compounds 2 and 3
Description: as §1
as §2, with “CA). Concentration-response data were analyzed by nonlinear regression and the IC50 's (50% inhibitory concentrations) for each compound were calculated.” for “CA).”

Water solubility = type: physicochemical
[4] = Stability of the free acid (PMR spectrum on standing); type: physicochemical; conditions: gradual changes in PMR spectrum on standing
Excerpt: Hydrolysis of the ester (compound 5a) with 2.5% KOH/MeOH gave the corresponding potassium salt which was purified by reverse phase chromatography. Conversion of the salt (compound 7a) to the free acid (compound 8a) was achieved by acidification with acetic acid. The free acid appears to be unstable, as evidenced by gradual changes seen in its PMR spectrum on standing. This may be due to the instability of the acetal or ketal functions of the molecule under acidic conditions. In contrast, compounds 7b through 7d were smoothly converted to their corresponding stable free acids (compounds 8b-d).

In vitro antimalarial activity IC50, Sierra Leone (D-6) [1] | IC50 [2] | stability in solution (physchem) | water solubility (Water solubility) | stability of free acid [4] | SMILES | in vitro antimalarial activity relative to parent compounds [3]
1.74 ng/mL | 0.92 ng/mL | stable in solution | water soluble | – | CC1CCC2C(C)C(OCc3ccc(C(=O)O)cc3)OC3OC4(C)CCC1C32OO4 (stereo not drawn) [Compound 7d, Potassium p-(10-Dihydroartemisininoxy)methylbenzoate] | comparable in vitro activity to artemisinin
– | – | – | – | unstable | CC1CCC2C(C)C(OCC(=O)O)OC3OC4(C)CCC1C32OO4 (stereo not drawn) [Compound 8a, 2-(10-Dihydroartemisininoxy)acetic acid] | –
